# Measured values published in patent publication US8247170B2, “Detection of penicillin tolerance in Group B Streptococcus: single nucleotide polymorphisms in penicillin binding protein 4” (priority 2008, dated 2012).
# Test system: GBS laboratory strains
# Experiment: Penicillin induced lysis (OD600 change)
# Type: cell-based, Group B Streptococcus
# Settings: 100×MIC90 Penicillin G 22 hours
# Experimental: In this series of study, the three GBS laboratory strains (i.e., A909, NEM316, and O90R) were cultured for 18 hours at 37° C. in THB. Subcultures in THB were subsequently grown to exponential phase (OD600˜0.3) at 37° C. Cells were treated with 100×MIC90 Penicillin G for an additional 22 hours. OD600 of these cell cultures before (O.D. initial) and after penicillin treatment (O.D. experimental) was measured (N=3). The values of O.D. experimental were subtracted from O.D. initial. (See FIG. 2).
# (I) Bacterial Strains and Culture Conditions. GBS strains A909 (serotype IA), 515 (serotype IA), NEM316 (serotype III), COHI (serotype III), 2603V/R (serotype V) and O90R (non-typable) were used in this study. E. coli Top10 cells were used for the recombination experiments. GBS was cultured in Todd Hewitt broth (THB) or Tryptic Soy 5% sheep blood (TS) media and E. coli in Luria-broth (LB) medium or agar. Antibiotics were used at the following concentrations: for GBS—penicillin G (MIC90 0.06 μg ml^−1), ampicillin (MIC90 0.12 μg ml^−1), vancomycin (MIC90 2 μg ml^−1), cefazolin (MIC90 1 μg ml^−1) and chloramphenicol (5 μg ml^−1); for E. coli—ampicillin (50 μg ml^−1) and chloramphenicol (5 μg ml^−1). Both GBS and E. coli cultures were grown at 37° C. (II) Tolerance Using the MBC:MIC Ratio Method. Three GBS laboratory strains (i.e., A909, NEM316, and O90R) were cultured overnight for 18 h at 37° C. in THB. Subcultures in THB were subsequently grown to exponential phase (OD600˜0.3; i.e. 5×10^5 cfu/ml) at 37° C. Cell cultures were then exposed to different concentrations of antibiotics (Penicillin G, Ampicillin, Cefozolin or Vancomycin). […] Cell cultures were allowed to re-grow for an additional 24 h at 37° C. before the OD600 was measured. […] The initial (in.) cellular ATP concentration ([ATP]) was measured using the ENLITEN (Promega) luciferase based reaction kit. […] The experimental (exp.) cellular ATP was extracted and the concentration was measured as stated above. […]
compound,measurement,setting,value
CC1(C)S[C@@H]2[C@H](NC(=O)Cc3ccccc3)C(=O)N2[C@H]1C(=O)O [Penicillin G],"change in OD600 (lysis, FIG. 2)",GBS strain A909,decrease in OD
same,"change in OD600 (lysis, FIG. 2)",GBS strain NEM316,did not
same,"change in OD600 (lysis, FIG. 2)",GBS strain O90R,did not
